Experimental data published in patent US20090312411A1, “PREVENTING OR REDUCING RISK OF MISCARRIAGES” (New York Society for the Raptured and Crippled Maintaining …, priority 2008, published 2009).

Legend:
monocytes = experiment: sFlt-1 release by monocytes in vitro (ELISA); assay type: cell-based, mouse; settings: 10 nM C5a for 4 h; pravastatin 5 μg/ml for 3 hours prior to C5a
Protocol: Protocol. Mice with a selective deletion of the TF gene in myeloid cells (TF^floxed/floxed/LysM-Cre mice) (Redecha et al., supra), were used for isolation of monocytes to study sVEGFR-1 production in vitro. Blockade of TF was carried out as in Example 17 by i.p. injections of anti-mTF antibody 1H1.
Protocol. Splenocytes were prepared from non pregnant CBA/J female mice and incubated for 4 h in culture medium supplemented with 10% inactivated fetal bovine serum (FBS). Non adherent cells were removed and adherent cells (>95% peroxidase-positive) were incubated in culture medium with the addition of 10 nM mouse recombinant C5a. A group of adherent monocytes was treated for 3 hours with pravastatin (5 μg/ml) prior to incubation with C5a. After 4 h of incubation with C5a, culture supernatants were collected and analyzed for sVEGFR-1 by ELISA (R&D Systems).

sFlt-1 = experiment: Plasma sFlt-1 (sVEGFR-1) ELISA in CBA/J×DBA/2 mice; assay type: in vivo, mouse; settings: day 7 of pregnancy
Protocol: Protocol. To determine the effect of pravastatin treatment on pregnancy loss and oxidative stress, group of mice was treated with pravastatin (Sigma Chemicals, St Louis, Mo.; 5 μg/mouse, IP) from day 4 to 15 of pregnancy. Pravastatin was directly dissolved in sterile PBS. Blood samples were obtained from pregnant females from days 1 to 15 of pregnancy from the submandibular vein. Nitric oxide (NO) was measured by a […] method (R&D Systems). Plasma sVEGFR-1 was measured with a commercial ELISA kit (R&D Systems).

TF = TF expression on peripheral blood monocytes, 2-color FACS; assay type: in vivo, mouse; settings: CBA/J×DBA/2 mice, FIG. 17G
Protocol: Determining TF Expression. TF expression on peripheral blood monocytes was analyzed by 2-color fluorescence-activated cell sorting (FACS). Heparinized whole blood obtained at day 7 from DBA/2 or BALB/c mated CBA/J females was stained with fluorescein isothiocyanate (FITC)-labeled anti-mouse F4/80 for FL1 (BD Biosciences Pharmingen) to identify monocytes and biotinylated rat anti-mTF antibody 1H1 and streptavidin-PerCP (BD Biosciences Pharmingen) as the FL3 fluorochrome. Red cells were lysed with ACK buffer (Redecha et al., supra). Preparations were then incubated with SA-PerCP and analyzed by FACS using a FACscan (BD Biosciences Pharmingen).

CBA/J×DBA/2 mice [1] = experiment: Fetal resorption frequency in CBA/J×DBA/2 matings (non aPL-dependent recurrent miscarriage); assay type: in vivo, mouse; settings: day 15 of pregnancy, FIG. 7, 15A, 17A
Excerpt: Protocol. DBA/2-mated female CBA/J mice (CBA/J×DBA/2) are a well-studied model of immunologically mediated pregnancy loss that shares features with human recurrent miscarriage (Clark, D A et al., 1998, J. Immunol. 160:545-549; Blois, M. et al., 2005, J. Immunol. 174:1820-1829). Embryonic lethality in DBA/2-mated female CBA/J mice is believed to represent rejection of the semiallogeneic placenta by maternal-derived activated effectors. 8-10-wk-old virgin female CBA/J mice were mated with 8-14-wk-old CBA/J, BALB/c, or DBA/2 males. Females were inspected daily for vaginal plugs, and presence of a vaginal plug was designated as day 0 of pregnancy. A group of DBA/2- and BALB/c mated CBA/J females were treated with pravastatin (0.2 μg/g bw=5 μg/mouse, i.p) on days 5, 6 and 7 of pregnancy. […] Pregnant females were euthanized on day 15 and fetal resorption frequency was calculated.
Animals. Inbred CBA/J (H-2k), DBA/2 (H-2d) and BALB/c (H-2d) mice from The Jackson Laboratory were used. 8-10-wk-old virgin female CBA/J mice were mated with 8-14-wk-old BALB/c, or DBA/2 males. […] The frequency of fetal resorption was calculated on day 15 as previously described (Girardi et al., 2006, J Exp Med 203:2165-2175). Fetal weights were also determined. […]
(§1) Protocol. […] Nitric oxide (NO) was measured by a calorimetric method (R&D Systems). Plasma sVEGFR-1 was measured with a commercial ELISA kit (R&D Systems).

CBA/J×DBA/2 mice [2] = experiment: Fetal weight / IUGR in CBA/J×DBA/2 matings; assay type: in vivo, mouse; settings: day 15 of pregnancy, FIG. 10, 15B, 17B
Protocol: Protocol. 8-10-wk-old virgin female CBA/J mice were mated with 8-14-wk-old CBA/J, BALB/c, or DBA/2 males. Females were inspected daily for vaginal plugs, and presence of a vaginal plug was designated as day 0 of pregnancy. Pregnant mice were treated with pravastatin (0.2 μg/g bw=5 μg/mouse, i.p 18 hours prior to aPL or NHIgG injections on days 8 and 12). Pravastatin (Sigma Chemical, St Louis, Mo.) was dissolved in EtOH at a concentration of 10 mg/mL and diluted with NaCl 0.9% in a ratio of 1:1000 to yield a final concentration of 10 μg pravastatin per 1 mL carrier. The NaCl 0.9%-based carrier solution for the placebo group was prepared accordingly to include EtOH only (i.e., without pravastatin) at a concentration of 1:1000. Pregnant females were euthanized on day 15 and weights of fetuses were determined.
Animals. Inbred CBA/J (H-2k), DBA/2 (H-2d) and BALB/c (H-2d) mice from The Jackson Laboratory were used. 8-10-wk-old virgin female CBA/J mice were mated with 8-14-wk-old BALB/c, or DBA/2 males. Pregnant females were sacrificed at day 7 and at day 15. The frequency of fetal resorption was calculated on day 15 as previously described (Girardi et al., 2006, J Exp Med 203:2165-2175). Fetal weights were also determined. […]
as §1

CBA/J×DBA/2 mice [3] = experiment: Litter size at birth in CBA/J×DBA/2 matings; assay type: in vivo, mouse; settings: CBA/J×DBA/2 mice followed until delivery; FIG. 15C, 17C
Protocol: Measuring Thrombin-Anti-Thrombin Complexes. Thrombin anti thrombin III complex (TAT) was measured using a commercial ELISA kit (Enzygnost TAT; Dade Behring). Some mice from each experimental group were studied until delivery and the litter sizes were recorded at birth.

[4] = system: Isoprostane 8-iso-prostaglandin F2a (STAT-8); experiment: Placental STAT-8 (8-isoprostane) EIA, oxidative stress marker; assay type: in vivo, mouse; settings: CBA/J×DBA/2 mice, day 15 placentas, FIG. 16A
Protocol: STAT-8 Measurements. Isoprostane 8-iso-prostaglandin F2a (STAT-8) was measured as a marker for oxidative stress. Placental tissue was harvested at day 15 of pregnancy and homogenized in 9 volumes of 0.1 M Tris pH 7.4 containing 1 mM EDTA and 10 μM indomethacin and stored at −80° C. in the presence of 0.005% BHT before assayed for free 8-isoprostane using a STAT-8-Isoprostane EIA kit (Cayman Chemical Company, Ann Arbor, Mich.).

Row | Compound | sFlt-1 released by monocytes (monocytes) | plasma sFlt-1 levels (sFlt-1) | % TF positive monocytes (TF) | fetal resorption / fetal loss (CBA/J×DBA/2 mice [1]) | IUGR / growth restriction (fetal weight) (CBA/J×DBA/2 mice [2]) | litter size at birth (CBA/J×DBA/2 mice [3]) | placental STAT-8 increase [4]
1 | CC[C@H](C)C(=O)O[C@H]1C[C@H](O)C=C2C=C[C@H](C)[C@H](CC[C@@H](O)C[C@@H](O)CC(=O)O)[C@H]21 [pravastatin] | 387 ± 78 pg/mL | 18650 ± 5680 pg/mL | 10±4% |  |  |  | 
2 | hirudin |  |  |  | prevented fetal resorptions | prevented fetal resorptions and growth restriction | increasing the litter size | prevented STAT-8 increase
